Read-outs that look alike come from different tables or passages of the source. Square brackets hold non-standard residues; d marks the D form. Peptide text beside a SMILES is read from it.
Columns and labels:
hJNK1 = target: T1, hJNK1 (Homo sapiens, UniProt P45983); experiment: hJNK1 | IC50; conditions: read-out: hJNK1 | IC50
T1 construct: His; purchased Upstate 14-327
Description: (§1) Table printed on a drawing sheet, Fig. 4
Head of the field: hJNK1 | IC50
(§2) The patent's description of the figure: FIG. 4: Table illustrating the inhibitory efficacy of several JNK inhibitors according to the present invention, which are fusion proteins of a JNK inhibitory (poly-)peptide sequence and a transporter sequence. Given are the IC50 values in the nM range, the respective standard error of the mean (SEM) and the number of experiments performed (n).
(§3) First copying reader's note: The sheet prints no unit for IC50 (the description says nM range); decimal commas are used, except for three IC50 cells printed with a point (3820.81, 5340.33, 8130.86).
Where the first naming reader finds the target: head: hJNK1 | IC50

hJNK2 = hJNK2 (Homo sapiens, UniProt P45984); experiment: hJNK2 | IC50
hJNK2, sequence (P45984 whole entry, looked up): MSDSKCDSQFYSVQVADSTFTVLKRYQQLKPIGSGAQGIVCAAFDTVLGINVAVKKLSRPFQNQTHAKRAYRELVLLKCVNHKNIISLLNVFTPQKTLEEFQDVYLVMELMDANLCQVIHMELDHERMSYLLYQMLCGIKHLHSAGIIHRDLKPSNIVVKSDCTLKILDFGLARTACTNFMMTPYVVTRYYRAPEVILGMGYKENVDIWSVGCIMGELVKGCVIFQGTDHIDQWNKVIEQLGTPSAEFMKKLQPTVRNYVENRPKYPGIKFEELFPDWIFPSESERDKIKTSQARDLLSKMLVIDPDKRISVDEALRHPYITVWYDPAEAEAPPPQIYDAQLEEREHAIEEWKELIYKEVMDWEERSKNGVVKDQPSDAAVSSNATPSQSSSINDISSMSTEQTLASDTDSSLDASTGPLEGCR
Description: as §1
Head of the field: hJNK2 | IC50
as §2, §3
Where the first naming reader finds the target: head: hJNK2 | IC50

hJNK3 = hJNK3 (Homo sapiens, UniProt P53779); experiment: hJNK3 | IC50; conditions: read-out: hJNK3 | IC50
hJNK3, sequence (P53779 whole entry, looked up): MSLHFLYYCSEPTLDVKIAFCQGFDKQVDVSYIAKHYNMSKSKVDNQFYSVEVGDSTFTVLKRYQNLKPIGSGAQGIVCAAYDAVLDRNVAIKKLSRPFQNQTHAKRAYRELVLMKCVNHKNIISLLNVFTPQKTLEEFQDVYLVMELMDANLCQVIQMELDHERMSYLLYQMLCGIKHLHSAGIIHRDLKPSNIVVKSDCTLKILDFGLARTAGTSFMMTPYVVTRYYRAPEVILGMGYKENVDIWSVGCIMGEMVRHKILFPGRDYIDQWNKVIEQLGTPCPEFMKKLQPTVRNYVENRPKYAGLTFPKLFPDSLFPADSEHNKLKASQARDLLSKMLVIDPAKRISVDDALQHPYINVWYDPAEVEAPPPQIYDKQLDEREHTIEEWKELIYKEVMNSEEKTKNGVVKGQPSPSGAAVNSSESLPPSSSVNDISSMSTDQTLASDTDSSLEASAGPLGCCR
Description: as §1
Head of the field: hJNK3 | IC50
as §2, §3
Where the first naming reader finds the target: head: hJNK3 | IC50

T1 sequence (P45983 whole entry, looked up): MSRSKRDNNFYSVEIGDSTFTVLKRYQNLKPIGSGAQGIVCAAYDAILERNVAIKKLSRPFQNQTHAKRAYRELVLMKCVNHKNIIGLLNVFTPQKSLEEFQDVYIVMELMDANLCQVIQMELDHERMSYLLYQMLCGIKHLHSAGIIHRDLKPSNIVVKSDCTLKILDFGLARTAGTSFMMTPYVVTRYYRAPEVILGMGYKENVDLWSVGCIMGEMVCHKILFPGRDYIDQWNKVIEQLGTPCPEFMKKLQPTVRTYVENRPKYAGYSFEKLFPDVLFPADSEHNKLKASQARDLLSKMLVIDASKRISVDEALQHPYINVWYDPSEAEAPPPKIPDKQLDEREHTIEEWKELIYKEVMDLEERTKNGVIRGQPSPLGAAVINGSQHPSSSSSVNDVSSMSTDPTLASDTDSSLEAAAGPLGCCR

Work on `CC(C)C[C@H](NC(=O)[C@@H](NC(=O)[C@@H](NC(=O)[C@@H]1CCCN1C(=O)[C@H](CCCNC(=N)N)NC(=O)[C@@H](CCCCN)NC(=O)[C@@H]1CCCN1C(=O)[C@H](CCCNC(=N)N)NC(=O)[C@@H](CCCNC(=N)N)NC(=O)[C@H](CCCNC(=N)N)NC(=O)[C@H](CCCNC(=N)N)NC(=O)[C@H](CCC(N)=O)NC(=O)[C@@H](CCCNC(=N)N)NC(=O)[C@H](CCCNC(=N)N)NC(=O)[C@H](CCCCN)NC(=O)[C@H](CCCCN)NC(=O)[C@H](N)CCCNC(=N)N)[C@@H](C)O)[C@@H](C)O)C(=O)N[C@H](CCCNC(=N)N)C(=O)N[C@@H](CC(C)C)C(=O)N[C@H](Cc1ccccc1)C(N)=O` [SEQ ID NO: 173, rKKRrQRRrRPkRPTTLrLf] (H-[dR]KKR[dR]QRR[dR]RP[dK]RPTTL[dR]L[dF]-NH2) yielded an IC50 (hJNK1) of 88.4 nM, an IC50 (hJNK2; read-out: hJNK2 | IC50) of 30 nM and an IC50 (hJNK3) of 16.8 nM.

With `CC(C)C[C@H](NC(=O)[C@H](CC(N)=O)NC(=O)[C@H](CC(C)C)NC(=O)[C@@H](NC(=O)[C@@H](NC(=O)[C@@H]1CCCN1C(=O)[C@H](CCCNC(=N)N)NC(=O)[C@@H](CCCNC(=N)N)NC(=O)[C@H](CCCNC(=N)N)NC(=O)[C@H](CCCNC(=N)N)NC(=O)[C@H](CCC(N)=O)NC(=O)[C@@H](CCCNC(=N)N)NC(=O)[C@H](CCCNC(=N)N)NC(=O)[C@H](CCCCN)NC(=O)[C@H](CCCCN)NC(=O)[C@H](N)CCCNC(=N)N)[C@@H](C)O)[C@@H](C)O)C(=O)N[C@H](Cc1ccccc1)C(N)=O` [SEQ ID NO: 174, rKKRrQRRrRPTTLNLf] (H-[dR]KKR[dR]QRR[dR]RPTTLNL[dF]-NH2) the IC50 (hJNK1) was 334 nM, the IC50 (hJNK2; read-out: hJNK2 | IC50) was 120 nM and the IC50 (hJNK3) was 63.1 nM.

In the case of `CC(C)C[C@H](NC(=O)[C@H](CC(N)=O)NC(=O)[C@H](CC(C)C)NC(=O)[C@@H](NC(=O)[C@@H](NC(=O)[C@@H]1CCCN1C(=O)[C@H](CCCNC(=N)N)NC(=O)[C@@H](CCCNC(=N)N)NC(=O)[C@H](CCCNC(=N)N)NC(=O)[C@H](CCC(N)=O)NC(=O)[C@@H](CCCNC(=N)N)NC(=O)[C@H](CCCNC(=N)N)NC(=O)[C@H](CCCCN)NC(=O)[C@H](CCCCN)NC(=O)[C@H](N)CCCNC(=N)N)[C@@H](C)O)[C@@H](C)O)C(=O)N[C@H](Cc1ccccc1)C(N)=O` [SEQ ID NO: 175, rKKRrQRrRPTTLNLf] (H-[dR]KKR[dR]QR[dR]RPTTLNL[dF]-NH2), the IC50 (hJNK1) is reported as 185 nM, the IC50 (hJNK2; read-out: hJNK2 | IC50) is reported as 82.3 nM and the IC50 (hJNK3) is reported as 60.6 nM.

`CC(C)C[C@H](NC(=O)[C@H](CC(N)=O)NC(=O)[C@H](CC(C)C)NC(=O)[C@@H](NC(=O)[C@@H](NC(=O)[C@@H]1CCCN1C(=O)[C@H](CCCNC(=N)N)NC(=O)[C@@H](CCCCN)NC(=O)[C@@H]1CCCN1C(=O)[C@H](CCCNC(=N)N)NC(=O)[C@@H](CCCNC(=N)N)NC(=O)[C@H](CCCNC(=N)N)NC(=O)[C@H](CCCNC(=N)N)NC(=O)[C@H](CCC(N)=O)NC(=O)[C@@H](CCCNC(=N)N)NC(=O)[C@H](CCCNC(=N)N)NC(=O)[C@H](CCCCN)NC(=O)[C@H](CCCCN)NC(=O)[C@H](N)CCCNC(=N)N)[C@@H](C)O)[C@@H](C)O)C(=O)N[C@H](Cc1c[nH]c2ccccc12)C(N)=O` [SEQ ID NO: 176, rKKRrQRRrRPkRPTTLNLw] (H-[dR]KKR[dR]QRR[dR]RP[dK]RPTTLNL[dW]-NH2) was tested, and the IC50 (hJNK1) was 131 nM, the IC50 (hJNK2; read-out: hJNK2 | IC50) was 40.3 nM and the IC50 (hJNK3) was 22.4 nM.

`CC(C)C[C@H](NC(=O)[C@H](CC(=O)O)NC(=O)[C@@H](NC(=O)[C@@H]1CCCN1C(=O)[C@H](CCCNC(=N)N)NC(=O)[C@@H](CCCCN)NC(=O)[C@@H]1CCCN1C(=O)[C@H](CCCNC(=N)N)NC(=O)[C@@H](CCCNC(=N)N)NC(=O)[C@H](CCCNC(=N)N)NC(=O)[C@H](CCCNC(=N)N)NC(=O)[C@H](CCC(N)=O)NC(=O)[C@@H](CCCNC(=N)N)NC(=O)[C@H](CCCNC(=N)N)NC(=O)[C@H](CCCCN)NC(=O)[C@H](CCCCN)NC(=O)[C@H](N)CCCNC(=N)N)[C@@H](C)O)C(=O)N[C@@H](CC(N)=O)C(=O)N[C@@H](CC(C)C)C(=O)N[C@H](Cc1ccccc1)C(N)=O` [SEQ ID NO: 177, rKKRrQRRrRPkRPTDLNLf] (H-[dR]KKR[dR]QRR[dR]RP[dK]RPTDLNL[dF]-NH2) showed an IC50 (hJNK1) of 355 nM, an IC50 (hJNK2; read-out: hJNK2 | IC50) of 87.2 nM and an IC50 (hJNK3) of 45.4 nM.

Work on `CC(C)C[C@H](NC(=O)[C@@H](NC(=O)[C@@H](NC(=O)[C@@H]1CCCN1C(=O)[C@H](CCCNC(=N)N)NC(=O)[C@@H](CCCNC(=N)N)NC(=O)[C@H](CCCNC(=N)N)NC(=O)[C@H](CCCNC(=N)N)NC(=O)[C@H](CCC(N)=O)NC(=O)[C@@H](CCCNC(=N)N)NC(=O)[C@H](CCCNC(=N)N)NC(=O)[C@H](CCCCN)NC(=O)[C@H](CCCCN)NC(=O)[C@H](N)CCCNC(=N)N)[C@@H](C)O)[C@@H](C)O)C(=O)N[C@H](CCCNC(=N)N)C(=O)N[C@@H](CC(C)C)C(=O)N[C@H](Cc1c[nH]c2ccccc12)C(N)=O` [SEQ ID NO: 178, rKKRrQRRrRPTTLrLw] (H-[dR]KKR[dR]QRR[dR]RPTTL[dR]L[dW]-NH2) yielded an IC50 (hJNK1) of 329 nM, an IC50 (hJNK2; read-out: hJNK2 | IC50) of 109 nM and an IC50 (hJNK3) of 30.4 nM.

For `CC(C)C[C@H](NC(=O)[C@@H](NC(=O)[C@@H](NC(=O)[C@@H]1CCCN1C(=O)[C@H](CCCNC(=N)N)NC(=O)[C@@H](CCCNC(=N)N)NC(=O)[C@H](CCCNC(=N)N)NC(=O)[C@H](CCC(N)=O)NC(=O)[C@@H](CCCNC(=N)N)NC(=O)[C@H](CCCNC(=N)N)NC(=O)[C@H](CCCCN)NC(=O)[C@H](CCCCN)NC(=O)[C@H](N)CCCNC(=N)N)[C@@H](C)O)[C@@H](C)O)C(=O)N[C@H](CCCNC(=N)N)C(=O)N[C@@H](CC(C)C)C(=O)N[C@H](Cc1c[nH]c2ccccc12)C(N)=O` [SEQ ID NO: 179, rKKRrQRrRPTTLrLw] (H-[dR]KKR[dR]QR[dR]RPTTL[dR]L[dW]-NH2), the IC50 (hJNK1) was 249 nM, the IC50 (hJNK2; read-out: hJNK2 | IC50) was 122 nM and the IC50 (hJNK3) was 45.7 nM.

`CC(C)C[C@H](NC(=O)[C@H](CC(=O)O)NC(=O)[C@@H](NC(=O)[C@@H]1CCCN1C(=O)[C@H](CCCNC(=N)N)NC(=O)[C@@H](CCCNC(=N)N)NC(=O)[C@H](CCCNC(=N)N)NC(=O)[C@H](CCCNC(=N)N)NC(=O)[C@H](CCC(N)=O)NC(=O)[C@@H](CCCNC(=N)N)NC(=O)[C@H](CCCNC(=N)N)NC(=O)[C@H](CCCCN)NC(=O)[C@H](CCCCN)NC(=O)[C@H](N)CCCNC(=N)N)[C@@H](C)O)C(=O)N[C@H](CCCNC(=N)N)C(=O)N[C@@H](CC(C)C)C(=O)N[C@H](Cc1c[nH]c2ccccc12)C(N)=O` [SEQ ID NO: 180, rKKRrQRRrRPTDLrLw] (H-[dR]KKR[dR]QRR[dR]RPTDL[dR]L[dW]-NH2) gave an IC50 (hJNK1) of 265 nM, an IC50 (hJNK2; read-out: hJNK2 | IC50) of 118 nM and an IC50 (hJNK3) of 47 nM.

`CC(C)C[C@H](NC(=O)[C@H](CC(=O)O)NC(=O)[C@@H](NC(=O)[C@@H]1CCCN1C(=O)[C@H](CCCNC(=N)N)NC(=O)[C@@H](CCCNC(=N)N)NC(=O)[C@H](CCCNC(=N)N)NC(=O)[C@H](CCC(N)=O)NC(=O)[C@@H](CCCNC(=N)N)NC(=O)[C@H](CCCNC(=N)N)NC(=O)[C@H](CCCCN)NC(=O)[C@H](CCCCN)NC(=O)[C@H](N)CCCNC(=N)N)[C@@H](C)O)C(=O)N[C@H](CCCNC(=N)N)C(=O)N[C@@H](CC(C)C)C(=O)N[C@H](Cc1c[nH]c2ccccc12)C(N)=O` [SEQ ID NO: 181, rKKRrQRrRPTDLrLw] (H-[dR]KKR[dR]QR[dR]RPTDL[dR]L[dW]-NH2) was tested, and the IC50 (hJNK1) was 294 nM, the IC50 (hJNK2; read-out: hJNK2 | IC50) was 160 nM and the IC50 (hJNK3) was 47.6 nM.

With `CC(C)C[C@H](NC(=O)[C@H](CC(N)=O)NC(=O)[C@H](CC(C)C)NC(=O)[C@@H](NC(=O)[C@@H](C)NC(=O)[C@@H]1CCCN1C(=O)[C@H](CCCNC(=N)N)NC(=O)[C@@H](CCCNC(=N)N)NC(=O)[C@H](CCCNC(=N)N)NC(=O)[C@H](CCCNC(=N)N)NC(=O)[C@H](CCC(N)=O)NC(=O)[C@@H](CCCNC(=N)N)NC(=O)[C@H](CCCNC(=N)N)NC(=O)[C@H](CCCCN)NC(=O)[C@H](CCCCN)NC(=O)[C@H](N)CCCNC(=N)N)[C@@H](C)O)C(=O)N[C@H](Cc1ccccc1)C(N)=O` [SEQ ID NO: 182, rKKRrQRRrRPaTLNLf] (H-[dR]KKR[dR]QRR[dR]RP[dA]TLNL[dF]-NH2) the IC50 (hJNK1) was 1680 nM, the IC50 (hJNK2; read-out: hJNK2 | IC50) was 168 nM and the IC50 (hJNK3) was 59.4 nM.

Molecule `CC(C)C[C@H](NC(=O)[C@H](CC(N)=O)NC(=O)[C@H](CC(C)C)NC(=O)[C@@H](NC(=O)[C@@H](C)NC(=O)[C@@H]1CCCN1C(=O)[C@H](CCCNC(=N)N)NC(=O)[C@@H](CCCNC(=N)N)NC(=O)[C@H](CCCNC(=N)N)NC(=O)[C@H](CCC(N)=O)NC(=O)[C@@H](CCCNC(=N)N)NC(=O)[C@H](CCCNC(=N)N)NC(=O)[C@H](CCCCN)NC(=O)[C@H](CCCCN)NC(=O)[C@H](N)CCCNC(=N)N)[C@@H](C)O)C(=O)N[C@H](Cc1ccccc1)C(N)=O` [SEQ ID NO: 183, rKKRrQRrRPaTLNLf] (H-[dR]KKR[dR]QR[dR]RP[dA]TLNL[dF]-NH2) has an IC50 (hJNK1) of 2590 nM, an IC50 (hJNK2; read-out: hJNK2 | IC50) of 427 nM and an IC50 (hJNK3) of 199 nM.

`C[C@H](NC(=O)[C@H](C)NC(=O)[C@@H](C)NC(=O)[C@H](C)NC(=O)[C@H](C)NC(=O)[C@@H](CCCCN)NC(=O)[C@@H]1CCCN1C(=O)[C@H](CCCNC(=N)N)NC(=O)[C@@H](CCCNC(=N)N)NC(=O)[C@H](CCCNC(=N)N)NC(=O)[C@H](CCCNC(=N)N)NC(=O)[C@H](CCC(N)=O)NC(=O)[C@@H](CCCNC(=N)N)NC(=O)[C@H](CCCNC(=N)N)NC(=O)[C@H](CCCCN)NC(=O)[C@H](CCCCN)NC(=O)[C@H](N)CCCNC(=N)N)C(=O)N[C@@H](CC(N)=O)C(=O)N[C@@H](C)C(=O)N[C@H](Cc1ccccc1)C(N)=O` [compound 200, NH2 r K K R r Q R R r R P k A A a A A N A f CONH2] (H-[dR]KKR[dR]QRR[dR]RP[dK]AA[dA]AANA[dF]-NH2) gave an IC50 (hJNK2) of 3320 nM.
